Where two headings read alike, the source gives them in different places.

The results in this text go back to doi:10.1101/2023.03.24.534094v2 (biorxiv, 2023).

Test in all cases: biochemical
Assay [1] concerns the target AAK1 (Homo sapiens, UniProt Q2M2I8).
Assay [2] has as its target AKT3 (Homo sapiens, UniProt Q9Y243).
The target in assay [3] is FES (Homo sapiens, UniProt P07332).
The target of assay [4] is FGFR2 (Homo sapiens, UniProt P21802).
Assay [5] has as its target T1, GAK (Homo sapiens, UniProt O14976).
T1 sequence (O14976 1-1311): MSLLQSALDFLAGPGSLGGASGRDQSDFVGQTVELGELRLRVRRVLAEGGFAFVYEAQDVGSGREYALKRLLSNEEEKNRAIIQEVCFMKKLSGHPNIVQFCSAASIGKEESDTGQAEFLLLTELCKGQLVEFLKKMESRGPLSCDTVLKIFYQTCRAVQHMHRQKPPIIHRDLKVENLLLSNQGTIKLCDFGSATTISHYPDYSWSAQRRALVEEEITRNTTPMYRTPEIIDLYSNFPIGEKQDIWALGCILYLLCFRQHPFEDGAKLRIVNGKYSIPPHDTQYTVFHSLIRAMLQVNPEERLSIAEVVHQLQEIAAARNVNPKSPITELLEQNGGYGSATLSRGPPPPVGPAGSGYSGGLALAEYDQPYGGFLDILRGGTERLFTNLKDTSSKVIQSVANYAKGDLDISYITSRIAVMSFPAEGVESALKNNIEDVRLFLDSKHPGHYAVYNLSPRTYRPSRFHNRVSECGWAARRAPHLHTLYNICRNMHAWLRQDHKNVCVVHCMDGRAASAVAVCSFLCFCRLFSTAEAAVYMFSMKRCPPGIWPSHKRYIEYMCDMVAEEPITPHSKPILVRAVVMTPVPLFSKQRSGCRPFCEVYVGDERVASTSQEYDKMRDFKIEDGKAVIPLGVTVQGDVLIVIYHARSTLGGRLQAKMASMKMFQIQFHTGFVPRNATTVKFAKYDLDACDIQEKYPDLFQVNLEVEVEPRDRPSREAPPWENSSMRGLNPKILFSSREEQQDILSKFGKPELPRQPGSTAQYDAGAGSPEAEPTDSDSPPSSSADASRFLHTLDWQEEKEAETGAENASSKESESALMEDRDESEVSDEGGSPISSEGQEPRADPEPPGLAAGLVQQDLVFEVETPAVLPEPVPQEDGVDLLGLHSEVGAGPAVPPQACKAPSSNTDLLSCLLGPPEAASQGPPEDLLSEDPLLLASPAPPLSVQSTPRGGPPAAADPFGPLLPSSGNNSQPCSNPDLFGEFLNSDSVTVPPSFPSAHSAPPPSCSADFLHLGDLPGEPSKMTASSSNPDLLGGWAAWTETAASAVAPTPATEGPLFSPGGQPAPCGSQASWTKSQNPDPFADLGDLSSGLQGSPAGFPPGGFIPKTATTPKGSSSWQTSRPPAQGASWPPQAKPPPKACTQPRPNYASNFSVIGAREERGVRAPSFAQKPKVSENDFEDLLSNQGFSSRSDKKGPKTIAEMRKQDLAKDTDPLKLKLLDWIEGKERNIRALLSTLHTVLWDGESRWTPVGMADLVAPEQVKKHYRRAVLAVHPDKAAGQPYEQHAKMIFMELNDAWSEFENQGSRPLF

Assay [6] addresses T2, MARK4 (Homo sapiens, UniProt Q96L34).
T2 sequence (Q96L34 1-752): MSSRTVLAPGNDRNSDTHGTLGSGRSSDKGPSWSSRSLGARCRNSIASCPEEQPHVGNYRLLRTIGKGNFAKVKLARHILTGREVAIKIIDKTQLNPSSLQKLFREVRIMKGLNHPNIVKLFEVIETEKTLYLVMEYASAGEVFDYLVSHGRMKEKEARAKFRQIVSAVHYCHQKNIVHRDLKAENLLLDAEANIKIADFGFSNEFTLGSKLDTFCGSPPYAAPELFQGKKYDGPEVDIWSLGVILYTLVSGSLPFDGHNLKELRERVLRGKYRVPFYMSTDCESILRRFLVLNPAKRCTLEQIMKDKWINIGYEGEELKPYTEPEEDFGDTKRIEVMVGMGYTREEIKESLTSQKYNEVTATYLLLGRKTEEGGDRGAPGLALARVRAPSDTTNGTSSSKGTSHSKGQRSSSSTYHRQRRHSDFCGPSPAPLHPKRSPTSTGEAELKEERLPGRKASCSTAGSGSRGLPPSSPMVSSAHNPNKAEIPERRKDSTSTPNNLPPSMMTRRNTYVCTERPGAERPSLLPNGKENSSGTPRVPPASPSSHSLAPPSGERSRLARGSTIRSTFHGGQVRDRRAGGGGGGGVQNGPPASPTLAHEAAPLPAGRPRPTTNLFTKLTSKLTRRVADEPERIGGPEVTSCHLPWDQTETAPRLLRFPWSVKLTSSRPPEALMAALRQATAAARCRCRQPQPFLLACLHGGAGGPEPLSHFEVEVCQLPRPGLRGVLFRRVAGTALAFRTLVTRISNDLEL

Assay [7] concerns the target MRCKa (Homo sapiens, UniProt Q5VT25).
Assay [8] deals with PIM1 (Homo sapiens, UniProt P11309).
Assay [9] deals with Wnk1 (Homo sapiens, UniProt Q9H4A3).

Sequence of FGFR2 (P21802 whole entry): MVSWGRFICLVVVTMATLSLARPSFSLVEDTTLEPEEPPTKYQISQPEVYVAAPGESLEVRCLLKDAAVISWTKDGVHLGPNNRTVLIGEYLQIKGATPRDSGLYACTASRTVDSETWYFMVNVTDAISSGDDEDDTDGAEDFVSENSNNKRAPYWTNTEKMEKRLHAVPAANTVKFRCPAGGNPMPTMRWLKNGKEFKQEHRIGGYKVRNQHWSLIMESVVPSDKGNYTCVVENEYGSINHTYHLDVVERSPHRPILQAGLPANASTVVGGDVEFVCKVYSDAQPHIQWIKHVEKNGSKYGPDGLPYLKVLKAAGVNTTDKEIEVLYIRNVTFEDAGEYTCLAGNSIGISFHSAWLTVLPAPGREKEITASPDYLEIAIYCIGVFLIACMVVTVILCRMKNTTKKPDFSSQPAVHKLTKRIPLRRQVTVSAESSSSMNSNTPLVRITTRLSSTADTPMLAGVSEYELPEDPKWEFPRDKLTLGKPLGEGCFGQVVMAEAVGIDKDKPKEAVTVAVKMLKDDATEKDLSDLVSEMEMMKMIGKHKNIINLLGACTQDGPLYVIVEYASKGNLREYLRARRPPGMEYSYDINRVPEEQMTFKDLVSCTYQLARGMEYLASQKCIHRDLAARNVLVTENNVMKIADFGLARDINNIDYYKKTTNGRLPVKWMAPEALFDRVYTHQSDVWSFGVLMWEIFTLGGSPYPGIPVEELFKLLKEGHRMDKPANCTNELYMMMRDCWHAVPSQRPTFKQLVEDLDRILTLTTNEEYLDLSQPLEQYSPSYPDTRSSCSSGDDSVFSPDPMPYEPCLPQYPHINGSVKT
Sequence of AKT3 (Q9Y243 whole entry): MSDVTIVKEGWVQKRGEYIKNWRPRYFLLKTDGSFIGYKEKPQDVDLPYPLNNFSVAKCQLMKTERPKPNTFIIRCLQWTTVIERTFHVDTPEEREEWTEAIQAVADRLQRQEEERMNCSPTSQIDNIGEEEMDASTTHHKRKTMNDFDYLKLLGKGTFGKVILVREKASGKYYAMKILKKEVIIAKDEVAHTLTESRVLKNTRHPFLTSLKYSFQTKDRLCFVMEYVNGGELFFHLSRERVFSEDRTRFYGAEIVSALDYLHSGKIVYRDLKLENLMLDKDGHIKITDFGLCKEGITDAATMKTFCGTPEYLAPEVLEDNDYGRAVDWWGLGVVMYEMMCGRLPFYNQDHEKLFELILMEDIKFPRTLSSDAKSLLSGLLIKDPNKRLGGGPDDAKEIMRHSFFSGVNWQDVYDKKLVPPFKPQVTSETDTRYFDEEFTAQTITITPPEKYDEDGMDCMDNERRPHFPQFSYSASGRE
Sequence of FES (P07332 whole entry): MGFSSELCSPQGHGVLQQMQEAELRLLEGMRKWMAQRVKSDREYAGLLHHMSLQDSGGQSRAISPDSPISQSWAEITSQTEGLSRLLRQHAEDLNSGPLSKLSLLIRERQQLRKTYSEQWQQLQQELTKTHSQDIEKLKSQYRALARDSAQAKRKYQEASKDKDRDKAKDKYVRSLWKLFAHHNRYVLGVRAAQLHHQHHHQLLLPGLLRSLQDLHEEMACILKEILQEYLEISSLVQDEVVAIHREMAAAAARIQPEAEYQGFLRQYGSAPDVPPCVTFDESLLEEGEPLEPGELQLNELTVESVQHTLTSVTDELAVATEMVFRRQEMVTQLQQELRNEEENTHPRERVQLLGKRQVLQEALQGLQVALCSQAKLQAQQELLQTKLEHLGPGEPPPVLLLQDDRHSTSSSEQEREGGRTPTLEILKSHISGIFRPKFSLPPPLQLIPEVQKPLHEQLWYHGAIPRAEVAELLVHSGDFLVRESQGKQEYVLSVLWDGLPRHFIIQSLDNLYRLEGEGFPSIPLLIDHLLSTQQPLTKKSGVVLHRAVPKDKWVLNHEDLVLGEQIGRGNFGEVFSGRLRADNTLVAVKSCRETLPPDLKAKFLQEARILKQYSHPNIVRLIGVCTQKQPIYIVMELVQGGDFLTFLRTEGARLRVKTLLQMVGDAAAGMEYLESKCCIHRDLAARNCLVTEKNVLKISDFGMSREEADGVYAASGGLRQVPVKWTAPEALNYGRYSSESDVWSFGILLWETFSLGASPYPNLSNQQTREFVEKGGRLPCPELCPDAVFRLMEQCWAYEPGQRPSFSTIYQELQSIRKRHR
Sequence of AAK1 (Q2M2I8 whole entry): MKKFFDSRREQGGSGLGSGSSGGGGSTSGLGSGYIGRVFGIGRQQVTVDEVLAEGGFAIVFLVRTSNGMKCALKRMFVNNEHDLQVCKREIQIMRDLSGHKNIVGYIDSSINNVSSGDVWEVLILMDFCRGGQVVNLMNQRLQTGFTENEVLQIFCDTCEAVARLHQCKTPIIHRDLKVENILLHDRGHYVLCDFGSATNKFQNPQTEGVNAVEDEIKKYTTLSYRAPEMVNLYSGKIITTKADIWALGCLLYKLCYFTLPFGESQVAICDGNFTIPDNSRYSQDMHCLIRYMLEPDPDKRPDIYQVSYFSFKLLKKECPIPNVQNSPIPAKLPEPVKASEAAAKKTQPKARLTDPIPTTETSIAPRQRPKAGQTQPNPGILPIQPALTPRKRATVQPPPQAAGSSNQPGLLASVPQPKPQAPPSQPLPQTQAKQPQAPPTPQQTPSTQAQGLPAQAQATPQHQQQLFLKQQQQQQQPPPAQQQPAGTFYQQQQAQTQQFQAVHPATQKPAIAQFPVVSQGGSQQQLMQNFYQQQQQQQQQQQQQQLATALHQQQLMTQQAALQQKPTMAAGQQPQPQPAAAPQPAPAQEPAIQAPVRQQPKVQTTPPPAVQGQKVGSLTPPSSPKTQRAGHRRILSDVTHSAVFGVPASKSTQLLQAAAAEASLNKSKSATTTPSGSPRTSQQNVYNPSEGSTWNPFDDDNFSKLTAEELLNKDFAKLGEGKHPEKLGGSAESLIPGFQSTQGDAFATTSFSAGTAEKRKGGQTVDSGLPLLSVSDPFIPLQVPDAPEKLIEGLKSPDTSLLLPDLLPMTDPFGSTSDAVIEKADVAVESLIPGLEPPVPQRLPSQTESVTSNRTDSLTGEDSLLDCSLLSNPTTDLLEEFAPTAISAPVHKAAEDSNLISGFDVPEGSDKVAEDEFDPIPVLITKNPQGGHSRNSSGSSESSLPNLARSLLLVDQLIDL
Sequence of MRCKa (Q5VT25 whole entry): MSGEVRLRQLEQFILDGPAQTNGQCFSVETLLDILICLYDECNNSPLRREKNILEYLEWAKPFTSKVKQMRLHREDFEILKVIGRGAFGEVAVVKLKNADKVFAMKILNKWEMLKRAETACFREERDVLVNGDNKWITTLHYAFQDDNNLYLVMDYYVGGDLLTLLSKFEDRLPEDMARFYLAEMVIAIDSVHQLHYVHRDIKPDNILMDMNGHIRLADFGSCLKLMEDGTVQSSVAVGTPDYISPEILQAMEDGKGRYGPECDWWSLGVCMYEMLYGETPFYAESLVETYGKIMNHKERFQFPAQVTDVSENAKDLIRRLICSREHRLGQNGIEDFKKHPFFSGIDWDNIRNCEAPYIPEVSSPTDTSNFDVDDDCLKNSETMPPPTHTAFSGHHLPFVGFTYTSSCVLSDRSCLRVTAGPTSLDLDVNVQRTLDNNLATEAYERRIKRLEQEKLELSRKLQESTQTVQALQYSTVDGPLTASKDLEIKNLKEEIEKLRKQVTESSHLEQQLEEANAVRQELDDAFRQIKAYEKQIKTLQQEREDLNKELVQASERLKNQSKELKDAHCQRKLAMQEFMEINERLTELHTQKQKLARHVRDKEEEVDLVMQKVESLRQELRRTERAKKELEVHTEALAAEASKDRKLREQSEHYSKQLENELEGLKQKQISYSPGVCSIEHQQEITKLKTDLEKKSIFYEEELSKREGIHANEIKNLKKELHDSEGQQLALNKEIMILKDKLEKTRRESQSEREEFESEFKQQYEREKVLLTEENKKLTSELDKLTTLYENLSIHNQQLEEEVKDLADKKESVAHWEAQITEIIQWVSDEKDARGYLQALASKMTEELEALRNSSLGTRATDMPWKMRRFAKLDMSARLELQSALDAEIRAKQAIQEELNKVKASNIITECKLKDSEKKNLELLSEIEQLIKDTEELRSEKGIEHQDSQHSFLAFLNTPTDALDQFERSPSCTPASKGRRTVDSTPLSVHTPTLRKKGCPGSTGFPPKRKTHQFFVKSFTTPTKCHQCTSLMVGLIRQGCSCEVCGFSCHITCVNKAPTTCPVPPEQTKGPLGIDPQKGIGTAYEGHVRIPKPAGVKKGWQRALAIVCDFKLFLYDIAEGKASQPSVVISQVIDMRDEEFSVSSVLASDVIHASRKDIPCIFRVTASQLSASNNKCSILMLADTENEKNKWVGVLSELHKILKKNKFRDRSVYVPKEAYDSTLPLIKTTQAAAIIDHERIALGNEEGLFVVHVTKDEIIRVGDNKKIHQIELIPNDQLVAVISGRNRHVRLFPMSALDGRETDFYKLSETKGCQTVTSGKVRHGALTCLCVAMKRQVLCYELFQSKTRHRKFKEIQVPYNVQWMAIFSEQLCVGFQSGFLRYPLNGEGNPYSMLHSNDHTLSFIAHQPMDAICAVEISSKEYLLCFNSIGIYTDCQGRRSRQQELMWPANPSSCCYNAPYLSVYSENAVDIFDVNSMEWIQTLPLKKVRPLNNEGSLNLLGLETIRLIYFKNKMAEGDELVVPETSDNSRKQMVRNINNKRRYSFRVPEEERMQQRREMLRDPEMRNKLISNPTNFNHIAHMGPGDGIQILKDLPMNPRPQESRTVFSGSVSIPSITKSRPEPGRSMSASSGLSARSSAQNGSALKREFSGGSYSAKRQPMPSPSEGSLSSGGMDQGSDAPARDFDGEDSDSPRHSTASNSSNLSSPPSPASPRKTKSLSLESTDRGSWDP

On to `CNc1ncc2cc(-c3cc(Cl)ccc3Cl)c(=O)n(CCCCN)c2n1` [compound 8, 8-(4-Aminobutyl)-6-(2,5-dichlorophenyl)-2-(methylamino)pyrido[2,3-d]pyrimidin-7(8H)-one], for which the ΔTm at 10 µM worked out at 0.8 °C in [1] (read-out: dTm 8); 0 °C in assay [2] (read-out: dTm 8); 2.5 °C in assay [3] (read-out: dTm 8); 4.1 °C in [4] (read-out: dTm 8); 3.7 °C in [5] (read-out: dTm 8); 1 °C in [6] (read-out: dTm 8). The ΔTm at 10 µM was determined as 0 °C in assay [7] (read-out: dTm 8), 0.8 °C in assay [8] (read-out: dTm 8) and 0.3 °C in assay [9] (read-out: dTm 8).
Take `CNc1ncc2cc(-c3cc(Br)ccc3Br)c(=O)n(CCCCN)c2n1` [compound 11, 8-(4-Aminobutyl)-6-(2,5-dibromophenyl)-2-(methylamino)pyrido[2,3-d]pyrimidin-7(8H)-one]: the ΔTm at 10 µM is 0.4 °C in assay [1] (read-out: dTm 11); -0.1 °C in assay [2] (read-out: dTm 11); 2.8 °C in assay [3] (read-out: dTm 11); 3.4 °C in [4] (read-out: dTm 11); 3.3 °C in [5] (read-out: dTm 11); 1.8 °C in assay [6] (read-out: dTm 11). The ΔTm at 10 µM was -0.2 °C in [7] (read-out: dTm 11), 0.6 °C in [8] (read-out: dTm 11) and 0.4 °C in [9] (read-out: dTm 11).
As for `CNc1ncc2cc(-c3cc(C(F)(F)F)ccc3Cl)c(=O)n(CCCCN)c2n1` [compound 9, 8-(4-Aminobutyl)-6-(2-chloro-5-(trifluoromethyl)phenyl)-2-(methylamino)pyrido[2,3-d]pyrimidin-7(8H)-one], the ΔTm at 10 µM in assay [1] (read-out: dTm 9) stood at 0 °C; in assay [2] (read-out: dTm 9), 0 °C; in [3] (read-out: dTm 9) it was 1.4 °C; in [4] (read-out: dTm 9), 2.1 °C; in assay [5] (read-out: dTm 9) it was 1 °C; in assay [6] (read-out: dTm 9) it was 0 °C. The ΔTm at 10 µM was -0.5 °C in [7] (read-out: dTm 9), 0.6 °C in assay [8] (read-out: dTm 9) and 0.1 °C in [9] (read-out: dTm 9).
For `CNc1ncc2cc(-c3cc(F)c(-c4cccc(C)n4)cc3F)c(=O)n(CCCCN)c2n1` [compound 12, 8-(4-Aminobutyl)-6-(2,5-difluoro-4-(6-methylpyridin-2-yl)phenyl)-2-(methylamino)pyrido[2,3-d]pyrimidin-7(8H)-one], the ΔTm at 10 µM in [1] (read-out: dTm 12) is 0.5 °C; in [2] (read-out: dTm 12), 1.2 °C; in [3] (read-out: dTm 12) it was 5.4 °C; in assay [4] (read-out: dTm 12), 1.1 °C; in assay [5] (read-out: dTm 12) it was 7.6 °C; in assay [6] (read-out: dTm 12), 4.5 °C. For the same compound, the ΔTm at 10 µM was -0.8 °C in assay [7] (read-out: dTm 12), 0.8 °C in [8] (read-out: dTm 12) and 1 °C in [9] (read-out: dTm 12).
On to `CNc1ncc2cc(-c3cc(Cl)ccc3Br)c(=O)n(CCCCN)c2n1` [compound 10, 8-(4-Aminobutyl)-6-(2-bromo-5-chlorophenyl)-2-(methylamino)pyrido[2,3-d]pyrimidin-7(8H)-one], for which the ΔTm at 10 µM in assay [1] (read-out: dTm 10) is 0.5 °C; in assay [2] (read-out: dTm 10) it was -0.1 °C; in assay [3] (read-out: dTm 10), 2.5 °C; in [4] (read-out: dTm 10), 3.3 °C; in assay [5] (read-out: dTm 10), 3.3 °C; in assay [6] (read-out: dTm 10) it was 1.7 °C. The results for the ΔTm at 10 µM in [7] (read-out: dTm 10), in assay [8] (read-out: dTm 10) and in assay [9] (read-out: dTm 10) were -0.2 °C, 0.8 °C and 0.3 °C, respectively.
